# From patent US9428519B2, “Acylated derivative of homoharringtonine, preparation method therefor, and application thereof” (HANGZHOU BENSHENG PHARMACEUTICAL CO., LTD., priority 2011, dated 2016)
# How the values were obtained:
# [1] = test system: U87 MG (malignant glioma cell); experiment: MTT growth inhibition of human solid tumor cells, 72 h; assay type: cell-based
# Experimental: (§1) Human solid tumor cell lines: Hep-2 (laryngeal carcinoma), A549 (human lung cancer), CaES-17 (esophageal cancer cell), PC-3 (prostate cancer), CNE (nasopharyngeal carcinoma cell), and SK-OV-3 (ovarian cancer cell), all of which are purchased from China Center For Type Culture Collection; RKO (human colon adenocarcinoma cell), MGC 803 (human gastric cancer cell), MG63 (osteosarcoma) and U87 MG (malignant glioma cell), all of which are purchased from Fuxiang Bio-tech Co. Ltd., Shanghai, China; PANC-1 (pancreatic cancer), Huh7 (human liver cancer cell), Becap37 (human breast cancer cell), and Hela (human cervical cancer cell), all of which are donated by Cancer Research Institute of Zhejiang University, China.
# (§2) Obtaining 4000 well-growing human solid tumor cells and inoculating them into wells of a 96-well cell culture plate. The culture medium is DMEM High Glucose cell culture medium containing 10% fetal bovine serum. The plate is placed in a carbon dioxide cell incubator (5% CO2) at 37° C. and incubated for 24 hours. After adding the homoharringtonine derivatives of different concentration and mixing uniformly, the plate is placed in a carbon dioxide cell incubator (5% CO2) at 37° C. and incubated for 72 hours. Then the viable cell concentration is determined by the MTT method and the cell viability (%) after drug treatment is calculated. In this experiment, the cell viability of control group (not treated with any compound) is set as 100%.
# [2] = test system: CNE (nasopharyngeal carcinoma cell); experiment: as above; assay type: cell-based
# Experimental: as §1, §2
# MG63 (osteosarcoma) = experiment: as above; assay type: cell-based
# Experimental: as §1, §2
# [3] = test system: RKO (human colon adenocarcinoma cell); experiment: as above; assay type: cell-based
# Experimental: as §1, §2
# [4] = test system: PANC-1 (pancreatic cancer); experiment: as above; assay type: cell-based
# Experimental: as §1, §2
# [5] = test system: SK-OV-3 (ovarian cancer cell); experiment: as above; assay type: cell-based
# Experimental: as §1, §2
# PC-3 (prostate cancer) = experiment: as above; assay type: cell-based; conditions: MTT
# Experimental: as §1, §2
# [6] = test system: CaES-17 (esophageal cancer cell); experiment: as above; assay type: cell-based
# Experimental: as §1, §2
# [7] = test system: Huh7 (human liver cancer cell); experiment: as above; assay type: cell-based
# Experimental: as §1, §2
# [8] = test system: Hela (human cervical cancer cell); experiment: as above; assay type: cell-based
# Experimental: as §1, §2
# A549 (human lung cancer) = experiment: as above; assay type: cell-based
# Experimental: as §1, §2
# [9] = test system: Becap37 (human breast cancer cell); experiment: as above; assay type: cell-based
# Experimental: as §1, §2
# [10] = test system: Hep-2 (laryngeal carcinoma); experiment: as above; assay type: cell-based
# Experimental: as §1, §2
# [11] = test system: MGC 803 (human gastric cancer cell); experiment: as above; assay type: cell-based
# Experimental: as §1, §2
# [12] = test system: RPMI8226 (multiple myeloma); experiment: MTT growth inhibition of multiple myeloma cells, 72 h; assay type: cell-based, human
# Experimental: Multiple myeloma and lymphoma cell lines: RPMI8226 (multiple myeloma), purchased from Fuxiang Bio-tech Co. Ltd., Shanghai, China.
# (§3) Obtaining 6000 well-growing leukemia cells and inoculating them into wells of a 96-well cell culture plate. The culture medium is the 1640 cell culture medium containing 10% fetal bovine serum. After adding the homoharringtonine derivatives of different concentrations and mixing uniformly, placing the plate in a carbon dioxide cell incubator (5% CO2) at 37° C. and incubated for 72 hours. Then the viable cell concentration is determined by the MTT method. In this experiment, the cell viability in control group (not treated with any compound) is set as 100%. On such basis, the cell viability (%) after treatment and the 50% inhibiting concentration of the compound for the leukemia cell growth at 72 hours (IC50 value of 72 hours) are calculated.
# [13] = test system: NB4 (acute promyelocytic leukemia, AML); experiment: MTT growth inhibition of leukemia cells, 72 h; assay type: cell-based, human; conditions: MTT
# Source text: (§4) Leukemia cell lines: leukemia cell lines: K562/adr (drug-resistant, chronic myeloid leukemia, CML), NB4 (acute promyelocytic leukemia, AML), Kasumi-1 (acute myeloid leukemia M2 type, AML-M2), Jurkat (acute lymphoblastic leukemia, ALL), all of which are donated by Cancer Research Institute of Zhejiang University, China; and H9 (acute lymphoblastic leukemia, ALL), which is purchased from China Center for Type Culture Collection (CCTCC).
# (§5) Reagents: The standard sample of homoharringtonine (HHT) is purchased from Taihua Natural Plant Pharmaceutical Co., Ltd., Shaanxi, China, the homoharringtonine derivatives of the present invention.
# as §3
# [14] = test system: Jurkat (acute lymphoblastic leukemia, ALL); experiment: MTT growth inhibition of leukemia cells, 72 h; assay type: cell-based, human
# Source text: as §4, §5, §3
# [15] = test system: Kasumi-1 (acute myeloid leukemia M2 type, AML-M2); experiment: MTT growth inhibition of leukemia cells, 72 h; assay type: cell-based, human
# Source text: as §4, §5, §3
# [16] = test system: K562/adr (drug-resistant, chronic myeloid leukemia, CML); experiment: MTT growth inhibition of leukemia cells, 72 h; assay type: cell-based, human; conditions: MTT
# Source text: as §4, §5, §3
# [17] = test system: H9 (acute lymphoblastic leukemia, ALL); experiment: MTT growth inhibition of leukemia cells, 72 h; assay type: cell-based, human; conditions: MTT
# Source text: as §4, §5, §3
structure (smiles),measurement,setting,value
COC(=O)C[C@](O)(CCCC(C)(C)OC(=O)c1scnc1C)C(=O)O[C@@H]1C(OC)=C[C@]23CCCN2CCc2cc4c(cc2[C@H]13)OCO4 [BS-HH-0721],IC50,"[1]; Homo sapiens, U-87 MG",0.008 µg/mL
same,IC90,"[1]; Homo sapiens, U-87 MG",0.07 µg/mL
same,IC50,"[2]; Homo sapiens, MTT",0.0037 µg/mL
same,IC90,"[2]; Homo sapiens, MTT",> 16 µg/mL
same,anti-CNE effect relative to homoharringtonine,[2]; vs HHT,more than 10 fold
same,IC50,"MG63 (osteosarcoma); Homo sapiens, MG-63, MTT",0.006 µg/mL
same,IC90,"MG63 (osteosarcoma); Homo sapiens, MG-63, MTT",0.44 µg/mL
same,anti-MG63 effect relative to homoharringtonine,MG63 (osteosarcoma); vs HHT,substantially superior
same,IC50,"[3]; Homo sapiens, MTT",0.0009 µg/mL
same,IC90,"[3]; Homo sapiens, MTT",0.005 µg/mL
same,anti-RKO effect relative to homoharringtonine,[3]; vs HHT,substantially superior
same,IC50,"[4]; Homo sapiens, PANC-1, MTT",0.009 µg/mL
same,IC90,"[4]; Homo sapiens, PANC-1, MTT",> 16 µg/mL
same,anti-PANC-1 effect relative to homoharringtonine,[4]; vs HHT,> 4 fold
same,IC50,"[5]; Homo sapiens, SK-OV-3, MTT",0.022 µg/mL
same,IC90,"[5]; Homo sapiens, SK-OV-3, MTT",> 16 µg/mL
same,IC50,PC-3 (prostate cancer); Homo sapiens,0.04 µg/mL
same,IC90,PC-3 (prostate cancer); Homo sapiens,> 16 µg/mL
same,IC50,"[6]; Homo sapiens, CaEs17",0.014 µg/mL
same,IC90,"[6]; Homo sapiens, CaEs17",16 µg/mL
same,IC50,"[7]; Homo sapiens, Huh-7",0.0022 µg/mL
same,IC90,"[7]; Homo sapiens, Huh-7",0.038 µg/mL
same,IC50,"[8]; Homo sapiens, HeLa, MTT",0.005 µg/mL
same,IC90,"[8]; Homo sapiens, HeLa, MTT",16 µg/mL
same,anti-Hela effect relative to homoharringtonine,[8]; vs HHT,> 4.0 fold
same,IC50,"A549 (human lung cancer); Homo sapiens, A549",0.01 µg/mL
same,IC90,"A549 (human lung cancer); Homo sapiens, A549",> 16 µg/mL
same,IC50,[9]; Homo sapiens,0.003 µg/mL
same,IC90,[9]; Homo sapiens,8.17 µg/mL
same,IC50,"[10]; Homo sapiens, HEp-2",0.004 µg/mL
same,IC90,"[10]; Homo sapiens, HEp-2",> 16 µg/mL
same,IC50,"[11]; Homo sapiens, MGC-803",0.006 µg/mL
same,IC90,"[11]; Homo sapiens, MGC-803",0.019 µg/mL
same,IC50,"[12]; Homo sapiens, RPMI-8226, MTT",0.002 µg/mL
same,IC90,"[12]; Homo sapiens, RPMI-8226, MTT",0.014 µg/mL
same,IC50,[13]; Homo sapiens,0.003 µg/mL
same,IC90,[13]; Homo sapiens,0.005 µg/mL
same,IC50,"[14]; Homo sapiens, Jurkat",0.002 µg/mL
same,IC90,"[14]; Homo sapiens, Jurkat",≥ 16 µg/mL
same,IC50,"[15]; Homo sapiens, Kasumi 1, MTT",0.002 µg/mL
same,IC90,"[15]; Homo sapiens, Kasumi 1, MTT",0.004 µg/mL
same,IC50,"[16]; Homo sapiens, K562/Adr",0.01 µg/mL
same,IC90,"[16]; Homo sapiens, K562/Adr",0.05 µg/mL
same,IC50,[17]; Homo sapiens,0.003 µg/mL
same,IC90,[17]; Homo sapiens,0.009 µg/mL
COC(=O)C[C@@](CCCC(C)(C)OC(=O)c1scnc1C)(OC(=O)c1scnc1C)C(=O)O[C@@H]1C(OC)=C[C@]23CCCN2CCc2cc4c(cc2[C@H]13)OCO4 [BS-HH-0722],IC50 U87 MG,[1],0.67 µg/mL
same,IC90 U87 MG,[1],3.42 µg/mL
same,IC50 CNE,[2]; MTT,0.77 µg/mL
same,IC90 CNE,[2]; MTT,>16 µg/mL
same,IC50 MG 63,MG63 (osteosarcoma); MTT,0.21 µg/mL
same,IC90 MG 63,MG63 (osteosarcoma); MTT,9.43 µg/mL
same,IC50 RKO,[3]; MTT,0.22 µg/mL
same,IC90 RKO,[3]; MTT,0.87 µg/mL
same,IC50 PANC-1,[4]; MTT,0.83 µg/mL
same,IC90 PANC-1,[4]; MTT,>16 µg/mL
same,IC50 SK-OV-3,[5]; MTT,1.94 µg/mL
same,IC90 SK-OV-3,[5]; MTT,>16 µg/mL
same,IC50 PC-3,PC-3 (prostate cancer),0.82 µg/mL
same,IC90 PC-3,PC-3 (prostate cancer),>16 µg/mL
same,IC50 CaES-17,[6],1.24 µg/mL
same,IC90 CaES-17,[6],16 µg/mL
same,IC50 Huh7,[7],0.66 µg/mL
same,IC90 Huh7,[7],7.6 µg/mL
same,IC50 Hela,[8]; MTT,0.87 µg/mL
same,IC90 Hela,[8]; MTT,>16 µg/mL
same,IC50 A549,A549 (human lung cancer),0.89 µg/mL
same,IC90 A549,A549 (human lung cancer),>16 µg/mL
same,IC50 Becap37,[9],0.47 µg/mL
same,IC90 Becap37,[9],16 µg/mL
same,IC50 Hep-2,[10],0.48 µg/mL
same,IC90 Hep-2,[10],>16 µg/mL
same,IC50 MGC 803,[11],0.5 µg/mL
same,IC90 MGC 803,[11],12 µg/mL
same,IC50 RPMI8226,[12]; MTT,0.29 µg/mL
same,IC90 RPMI8226,[12]; MTT,1.82 µg/mL
same,IC50 NB4,[13],0.2 µg/mL
same,IC90 NB4,[13],0.49 µg/mL
same,IC50 Jurkat,[14],0.3 µg/mL
same,IC90 Jurkat,[14],≥ 16 µg/mL
same,IC50 Kasumi-1,[15]; MTT,0.14 µg/mL
same,IC90 Kasumi-1,[15]; MTT,0.47 µg/mL
same,IC50 K562/adr,[16],0.9 µg/mL
same,IC90 K562/adr,[16],3.72 µg/mL
same,IC50 H9,[17],0.47 µg/mL
same,IC90 H9,[17],1.24 µg/mL
